Among the data in PubChem BioAssay (NCI) are GI50 and TGI values, retold here.

Test in all cases: NCI anticancer screen, dose series, 48 h
Test [1] relates to 786-0 renal.
Test [2] has as its system HL-60(TB) leukemia.
For test [3], the system named is LOX IMVI melanoma.
The test system of test [4] is NCI-H460 lung.
In test [5] the test system is RXF 393 renal.
Test [6] concerns U251 CNS.
Test [7] has as its system UACC-62 melanoma.
Test [8] concerns A498 renal.
The test system of test [9] is IGROV1 ovarian.
Test [10] has as its system HCC-2998 colon.

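Interpolation was linear, between the two tested concentrations surrounding the appropriate level; five concentrations were tested over 48 hours in 96-well plates. The concentration for 50% growth inhibition is given as GI50. The concentration for full growth arrest is given as TGI.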

Regarding `C=CC/C(=C\COP(=O)(OCc1ccc([N+](=O)[O-])o1)N(C)CCCCCl)CC/C=C(\C)CCC=C(C)C` (stereo unspecified), the GI50 was 13.2 µM in [1]; 21.9 µM in [2]; 13.8 µM in test [3]; 2560 nM in test [4]; 12.4 µM in test [5]; 11 µM in test [6]. The GI50 in test [7] is 13.8 µM. The TGI in test [1] is 25.9 µM; in test [2], above 100 µM; in test [3], 31.4 µM; in [4], 15.1 µM; in test [5], 24.9 µM; in test [6] it was 23 µM. This compound gave a TGI in [7] of 26.7 µM.
For `COc1ccc2c(c1)[n+]([O-])c(-c1ccc(C)cc1)c(N)[n+]2[O-]`, the TGI in test [1], in test [8], in [2], in test [9], in [4] and in test [6] was above 100 µM throughout.
For `CC(/C=C/c1ccccc1)=N\NC(N)=S`, the TGI in test [1] is above 100 µM; in test [8], 44.5 µM; in test [10], 79.1 µM; in test [2], 41.7 µM; in [9] it was above 100 µM; in test [3], above 100 µM. The TGI in test [4] and in test [6] was above 100 µM each time.
With `Cc1cnc2c(c1)C(=O)C1=C(OC(C)(C)CC1O)C2=O` (stereo unspecified), the TGI was determined as 28.2 µM in [1]; 32.9 µM in test [10]; 26.3 µM in test [2]; 28.9 µM in [9]; 25.8 µM in [3]; 23.9 µM in test [4]. Moreover, the TGI in test [5] amounted to 29.3 µM; in test [6], 29.3 µM; in test [7], 12.6 µM.
Regarding `N=C(N)c1ccc(NCCOCCNc2ccc(C(=N)N)cc2)cc1`, the GI50 is above 100 µM in [1]; 17 µM in test [8]; 41.9 µM in [10]; 60.9 µM in test [2]; 60.5 µM in [9]; above 100 µM in test [3]. Further, the GI50 in test [4] was 2940 nM; in [6], 35.9 µM; in test [7], 29.2 µM. Besides, the TGI in [1] was above 100 µM; in test [8], 94.6 µM; in [10], above 100 µM; in [2] it was above 100 µM; in test [9], above 100 µM; in test [3], above 100 µM. For the same compound, the TGI in test [4], in [6] and in test [7] was above 100 µM in each case.
Consider `COc1cc(C2C3=C(COC3=O)Nc3c2ccc2c3CCCC2)cc2c1OCO2` (stereo unspecified), for which the GI50 in [1] is 0.0757 µM; in [8], 0.0265 µM; in test [10], 0.052 µM; in test [2] it was 0.0316 µM; in [9] it was 0.0765 µM; in test [3] it was 0.0652 µM. Besides, the GI50 in test [4] is 35.3 nM; in test [6], 0.0418 µM; in test [7], 0.0462 µM. Moreover, the TGI in [1] is 14.4 µM; in test [8], 0.175 µM; in [2], 0.09 µM; in test [9], above 100 µM; in test [3], above 100 µM; in [4] it was 15.7 µM. The TGI is 14.9 µM in test [6] and above 100 µM in test [7].
As for `COC(=O)N/N=C(/CCC(=O)Nc1ccc(C)c(C)c1)CC(=O)C(C)(C)C`, the TGI in [1], in [10], in test [2], in test [9], in test [3] and in test [4] was above 100 µM in each case. Also, the TGI in test [5], in test [6] and in test [7] was above 100 µM throughout.
As for `Cc1ccc(-c2cc(=O)c3cc(C)c(C)c(C(=O)O)c3o2)cc1N`, the TGI in [1], in test [9], in test [3], in [4], in test [5] and in [6] was above 100 µM in each case. In [7], this compound registered a TGI above 100 µM.
As to `CN[C@@H](C)[C@H](N)c1ccccc1`, the TGI in [1], in [8], in test [10], in test [9], in [3] and in test [4] was above 100 µM throughout. Moreover, the TGI in test [5], in test [6] and in test [7] was above 100 µM in each case.
With `CC(=O)[CH-]C(=O)c1ccccc1.CC(=O)[CH-]C(=O)c1ccccc1.Cl.[O-]c1ccccn1.[O-]c1ccccn1.[Ti+4]`, the GI50 in [1], in test [8], in test [10], in test [2], in test [9] and in test [3] was above 100 µM in each case. Also, the GI50 in test [4] was above 100000 nM; in test [6], above 100 µM; in [7] it was above 100 µM. For the same compound, the TGI in [1], in test [8], in test [10], in test [2], in test [9] and in test [3] was above 100 µM each time. The TGI in [4], in test [6] and in test [7] was above 100 µM throughout.
In the case of `CSc1nc(NC2OC(COC(C)=O)C(OC(C)=O)C(OC(C)=O)C2OC(C)=O)c(-c2csc(N)n2)c(=O)n1C` (stereo unspecified), the TGI in test [1] is 39.4 µM; in [8], above 100 µM; in test [2], above 100 µM; in test [9] it was above 100 µM; in test [3], above 100 µM; in [4], above 100 µM. Besides, the TGI is above 100 µM in [6] and 89.4 µM in test [7].
Turning to `CC12CO[C@@](C)(CC(S(=O)(=O)c3ccccc3)C1)O2` (stereo partly specified), the TGI in [1], in [10], in test [2], in test [9], in test [4] and in test [5] was above 100 µM throughout. The TGI in test [6] and in test [7] was above 100 µM throughout.
